Drawing on article PMC5613698 (Biochemistry and Biophysics Reports, 2016), this text covers Km for 1 compound.

The experiment concerns trypsin from L. alexandri pyloric cecum (Pacamã trypsin). In words: p-nitroaniline release at […] nm, Lineweaver-Burk. The format is biochemical, Lophiosilurus alexandri. The conditions noted are these: optimum pH (9.0) and temperature (50 °C), 90 min, BAPNA 0-6.0 mM.

Structures can show the parent of a compound that is named as a salt.

For orientation: Km means the substrate concentration at which the rate is half of its maximum. As to `N=C(N)NCCCC(NC(=O)c1ccccc1)C(=O)Nc1ccc([N+](=O)[O-])cc1` (racemic) [BAPNA, Nα-Benzoyl-D,L-arginine 4-nitroanilide hydrochloride], the Km was 517 µM.
